Data set [1] deals with African green monkey Vero kidney cells (ATCC CCL-81). As to the kind of experiment: Cytotoxicity, alamarBlue cell viability. The class given is cell-based. The note with it: highest concentration tested (128 μg/mL); 24 hours. The method, then:
The cytotoxicity of the diketopiperazines was assessed in vitro against African green monkey Vero kidney cells (ATCC CCL-81). Cells were cultured in 15 mL of Eagle's minimal essential medium (Sigma) supplemented with 10% (v/v) fetal bovine serum (VWR), […] penicillin and 0.1 mg/mL streptomycin in T75 cm^2 cell culture flasks. Cells were incubated for 24 hours at 37° C. in a humidified atmosphere of 5% CO2. Culture medium was refreshed every 2-3 days and cells were not allowed to exceed 80% confluency. At 80% confluency the cells were counted, diluted and plated into 96 well flat bottom cell culture plates (Corning) at a cell density of 10,000 cells per well in 90 μL of growth medium. The plates were incubated at 37° C. in a humidified atmosphere of 5% CO2 for 24 hours to allow cells to adhere to the plate before treatment. After 24 hours, adjuvants were solubilised in DMSO, serially diluted and added to the wells at final concentrations ranging from 1 μg/mL to 128 μg/mL. DMSO was used as the vehicle at a final concentration of 1% in the wells. The plates were incubated at 37° C. in a humidified atmosphere of 5% CO2 for 24 hours after which alamarBlue (Invitrogen) was added to each well at 10% of the culture volume. Fluorescence was monitored using a Thermo Scientific Varioskan Flash plate reader at 560/12 excitation, 590 nm emission both at time zero and 4 hrs after alamarBlue addition. After subtracting the time zero emission 590 nm measurement from the final reading, the inferred percentage of cell viability relative to the vehicle control wells was calculated.

In data set [2] the test system is Botrytis cinerea (ATCC 90479). Put plainly: Adjuvancy: agar growth inhibition assay (colony diameter) with fungicide and/or adjuvant. The class given is cell-based. The note with it: for inherent fungicidal activity: adjuvant on its own, any of the concentrations tested. From the text:
As a measure of the adjuvant activity in relation to the activity of the fungicide alone (e.g., pyraclostrobin) to B. cinerea a value of percent inhibition (adjuvant and fungicide) divided by percent inhibition (fungicide) can be defined, with higher values desired. A value of 1 would therefore represent equal activity of the adjuvant/fungicide combination to the fungicide alone, whereas a value above 1 would represent higher activity with the adjuvant/fungicide combination than the fungicide alone. The actives of the present invention may have a value greater than 1. Preferably greater than 1.5, most preferably greater than 2.
Percent Inhibition—The percent inhibition will be understood to represent the amount the fungicide and/or adjuvant that inhibits the visible growth of the microorganism after 48 hours incubation at 22° C. relative to vehicle treated controls. This is calculated using the following formula:
where: • ØC=diameter of the colony grown on agar supplemented with vehicle (i.e. vehicle treated control), and • ØT=diameter of the colony grown on agar supplemented with fungicide and/or adjuvant formulated in an appropriate vehicle (i.e. solvent such as water C2H5OH, CH3OH, CH3CN, DMSO).
Fold Change—The fold change is a measure of the adjuvant/fungicide combination in inhibiting a microorganism compared to the fungicide alone. This indicates how the adjuvant performs relative to the fungicide alone. This is calculated using the following formula:
where: • INHAF=percent inhibition of fungal growth when treated with fungicide and adjuvant, and • INHF=percent inhibition of fungal growth when treated with fungicide alone.
Botrytis cinerea (ATCC 90479) was cultured on Difco Potato Dextrose Agar (PDA) for 7 days with diurnal UV cycles (12 h UV light and 12 h dark). Spores were harvested in a buffered, sterile saline solution (w/v: 0.9% NaCl with 1% Tween 80) and counted using a haemocytometer. The spore suspension was adjusted to a final concentration of 8.5×10^6 spores/mL to create a standardised inoculum.
To prepare hyphal fragments for adjuvant testing, 8.5×10^4 spores were used to inoculate 10 mL of Difco Potato Dextrose Broth in a 150×25 mm tube. The tube was incubated at 220 RPM, 22° C. for 48 hours. To create hyphal fragments from the culture, the culture was transferred to a 50 mL plastic conical tube containing approximately 20 sterile 5 mm diameter glass beads and vortexed for 5 min. After vortexing the tube was allowed to stand for 5 min to allow large mycelial clumps to settle and then the top layer containing hyphal fragments was removed and used as inocula for growth inhibition assays.
Fungicides and adjuvants were dissolved in methanol and added to molten PDA (˜50° C.) and then the agar was distributed in the wells of 12 well multiwell plates (1 mL/well). The plates were cooled to room temperature and 10 μL of hyphal inoculum was added to the centre of each well. The plates were incubated at 22° C. for 48 hours and then the colony diameter was measured using a digital caliper. The biological growth control consisted of hyphae and vehicle (0.07% methanol), the negative control was media and vehicle (0.07% methanol).
The effect of the adjuvants on fungicidal activity is represented as fold increase in growth inhibition. A value of 1 indicates no increase in fungicidal activity. A value less than 1 indicates reduced fungicidal activity and a value greater than 1 indicates increased fungicidal activity.

Another data set deals with soybean leaves. As to the kind of experiment: Phytotoxicity on leaves, necrosis score. It is filed as in vivo. The settings on record: Soy, 1 g/L, scale 0 (no necrosis) to 3 (extended necrosis). The procedure:
(§1) Phytotoxicity of the diketopiperazines was assessed on soybean and butterhead lettuce leaves. Soybean seeds were inoculated with Bradyrhizobium japnicum and sown in Levington's M3 compost in 9 cm^2 plastic pots. Soybean plants were given supplementary lighting with SON-T bulbs. Biological control was used to prevent thrip damage (Biolone—Amblyseius cucumeris). The glasshouse temperatures were set to maintain 22° C.±2 during the day and 19° C.±2 at night. Lettuce plants were grown in the same manner without rhizobacteria inoculation. Supplementary lighting was provided by LED bulbs. All plants were maintained as well watered and grown for fourteen days. Test compounds/extracts were resuspended in 2% DMSO ([…]). Synperonic Al1 LQ was used a positive control and UEP-100 as a negative control. Treatments were applied as six 10 μL droplets on the leaf's surface. Phytotoxic tissue damage was assessed 1- and 7-days post-treatment and on a scale of 0 to 3. The phytotoxic effect of the compounds/extract at 1 g/L is represented as a mean phytotoxic necrosis score, where 0=no necrosis; 1=slight spot-like necrosis of the inoculation site; 2=ring-shaped necrosis; 3=extended necrosis.

Data set [3] relates to butterhead lettuce leaves. As to the kind of experiment: Phytotoxicity on leaves, necrosis score. The class given is in vivo. The settings on record: scale 0 (no necrosis) to 3 (extended necrosis). The method, then: as §1
Where [4] appears, read: Pyra 0.0156 μg/mL, adjuvant 128 μg/mL, vs pyraclostrobin alone, 48 h, 22° C.
Setting [5] is: Pyra 0.0313 μg/mL, adjuvant 128 μg/mL, vs pyraclostrobin alone, 48 h, 22° C.
The mark [6] stands for this setting: Pyra 0.0625 μg/mL, adjuvant 128 μg/mL, vs pyraclostrobin alone, 48 h, 22° C.

The values below come from patent US20230301302A1, “AGROCHEMICAL ADJUVANTS” (Croda International Plc, priority 2020, published 2023).

`CN1C(=O)[C@@H]2CCCN2C(=O)/C1=C\c1ccccc1` [DKP (Ib)]: the “cytotoxicity against Vero cells” value in data set [1] is reported as “did not exhibit any cytotoxicity”. Also, the inherent fungicidal activity result in data set [2] is on record as “did not demonstrate any inherent fungicidal activity”.
As to `O=C1N/C(=C\c2ccccc2)C(=O)N2CCC[C@@H]12` [DKP (Ic)], the “cytotoxicity against Vero cells” value in data set [1] is given as “did not exhibit any cytotoxicity”. Moreover, the “Fold Change in Growth Inhibition” value in data set [2] (setting [4]) is listed as 1.52; in data set [2] (setting [5]), 3.14; in data set [2] (setting [6]), 1.48. Besides, the inherent fungicidal activity entry in data set [2] is “did not demonstrate any inherent fungicidal activity”.
For `CN1C(=O)[C@@H]2CCCN2C(=O)/C1=C/c1ccccc1` [DKP (Ia)], the “cytotoxicity against Vero cells” value in data set [1] is reported as “did not exhibit any cytotoxicity”. The “Fold Change in Growth Inhibition” value in data set [2] (setting [4]) was determined as 2.18; in data set [2] (setting [5]) it was 3.31; in data set [2] (setting [6]), 1.87; in data set [2] (Teb 0.095 μg/mL, adjuvant 25 μg/mL, vs tebuconazole alone), 1.97; in data set [2] (Teb 0.095 μg/mL, adjuvant 50 μg/mL, vs tebuconazole alone) it was 1.78; in data set [2] (Teb 0.095 μg/mL, adjuvant 100 μg/mL, vs tebuconazole alone), 2.00. Further, the “Fold Change in Growth Inhibition” value in data set [2] (Teb 0.19 μg/mL, adjuvant 25 μg/mL, vs tebuconazole alone) is listed as 4.39; in data set [2] (Teb 0.19 μg/mL, adjuvant 50 μg/mL, vs tebuconazole alone) it was 1.78; in data set [2] (Teb 0.19 μg/mL, adjuvant 100 μg/mL, vs tebuconazole alone) it was 2.76. Also, the inherent fungicidal activity result in data set [2] is given as “did not demonstrate any inherent fungicidal activity”. Further, the “Mean Score (phytotoxic necrosis)” value is given as 0 in the data set with soybean leaves (Day 1); “did not exhibit any phytotoxicity” with soybean leaves (Day 7); 0 in the data set on soybean leaves (Day 7, listed as DKP (1a)); 0 in data set [3] (Day 1, 1 g/L); “did not exhibit any phytotoxicity” in data set [3] (Day 7, 1 g/L); 0 in data set [3] (Day 7, 1 g/L, listed as DKP (1a)).
As for `O=C1N/C(=C/c2ccccc2)C(=O)N2CCC[C@@H]12` [DKP (Id)], in data set [1], the “cytotoxicity against Vero cells” value was “did not exhibit any cytotoxicity”. Further, the inherent fungicidal activity result in data set [2] is recorded as “did not demonstrate any inherent fungicidal activity”.
